Laboratory results from a melting point compilation (Tetko et al.; mined from patent text by program, amines drawn as free bases though some values may be those of a salt).

| Structure (SMILES) | melting point [°C] |
| --- | --- |
| CC1=C(C(C)O)C(C)(C)CCC1=NO (stereo not drawn) | 131 to 135 |
| O=C(O)CCc1cccc(C(=O)c2ccccc2)c1 | 70 |
| Fc1cc(OCc2ccccc2)cnc1Cl | 48 to 52 |
| O=C1CCC(c2ccc(Cl)c([N+](=O)[O-])c2)=NN1 | 190 to 193 |
| CC(CCC(=O)NC(C)(C)C)C1CC=C2C3=C(CCC21C)C1(C)CCC(O)C(C)(C)C1CC3 (stereo not drawn) | 171 to 176 |
| CSc1nn(C(=O)NC(C)c2ccc(Cl)c(Cl)c2)c(=O)n1N (stereo not drawn) | 132 |
| Oc1ccc(-c2nnc(CSCCCCOc3ccccc3)o2)cc1 | 129 to 130 |
| O=C(O)CN(Cc1ccccc1)C(=O)CCc1nc2c(F)c(F)cc(F)c2s1 | 144 to 146 |
| Cc1cc(Cn2nc(C(F)(F)F)cc2C(F)(F)F)ccc1NC(=O)c1cccc(Cl)c1C(=O)NC(C)(C)C(=O)O | 179 to 184 |
| Cc1oc(-c2ccccc2)nc1COc1ccc(COc2ccc3ccccc3c2CC#N)cc1 | 178 to 179 |
| COC(=O)c1cncn1C1c2ccsc2CC1(C)C (stereo not drawn) | 62 to 63 |
| Oc1ccc(Oc2ncc(Cl)cc2Cl)cc1 | 122 to 124 |
| COC(=O)c1ccc(C=Cc2ccc(OC)cc2)nc1 | 170 |
| COc1ccc(C(=O)C23CCCCC2C(=O)O3)cc1 (stereo not drawn) | 77.5 to 78.5 |
| CCCC(NOCC)=C1C(=O)CC(c2cc3ccccc3s2)CC1=O (stereo not drawn) | 73 to 76 |
| CCOC(=O)c1c(S(=O)(=O)O)nc(-c2ccccc2)c([N+](=O)[O-])c1C(=O)OCC | 187 to 190 |
| CC(=O)Nc1c(C)cc(OC(C)=O)c(C)c1C | 174 to 175 |
| CC(=O)C1CCC2C3CCC4CC(O)C(N5CC(C)OC(C)C5)CC4(C)C3C(=O)CC12C (stereo not drawn) | 172 to 174 |
| COc1ccc2[nH]c(C)c(C3CN4CCC3CC4)c2c1 (stereo not drawn) | 232 to 234 |
| CCc1cccc(C)c1CNc1cc(C(=O)O)cc2c1nc(COC)n2C | 275 to 278 |
| CC1=NC(NC(=O)CCc2ccc(Cl)cc2Cl)C(=O)N(C)c2ccccc21 (stereo not drawn) | 194 to 195 |
| CC(C)(CNc1ccnc2cc(Cl)ccc12)NCc1ccc(Cl)cc1Cl | 138 to 139 |
| O=C(c1cc([N+](=O)[O-])ccc1Nc1ccncc1)N1CCCCC1 | 194 to 196 |
| CCOC(=O)c1ccsc1NC(=O)NC | 83 to 87 |
| COc1cc2c(c3c1OC(C)(C)C3)C(c1cccc(-c3ccc(N)nc3)c1)=NC(C)(C)C2 | 165 to 168 |
| CCN1CCc2ccc(Nc3ncc(Cl)c(Nc4ccccc4S(=O)(=O)NC)n3)cc2CC1 | 175 |

| Structure (SMILES) | melting point [°C] |
| --- | --- |
| O=Cc1cn(C2CCCCC2)nc1-c1ccc([N+](=O)[O-])o1 | 150 to 151 |
| COC(=O)c1cc(O)cc(O[C@@H](C)CO)c1 | 133 |
| COc1ccc(N2CCN(c3ccc(OC(F)(F)F)cc3)C(=O)C2)c(-c2ccc(N(C)C)cc2)n1 | 116 to 120 |
| O=C(CCCN1CCN(c2ccccc2Cl)CC1)N1CCc2ccccc21 | 119 to 121 |
| CCCCCN(CCC12CC3CC(CC(C3)C1)C2)C(=O)NCCCCc1ccncc1 | 74.1 to 78.1 |
| NC(=NO)c1ccc(-c2n[nH]c3c2Cc2ccccc2-3)cc1 | > 300 |
| CCCCc1nc2c(N)nc3ccccc3c2n1OC | 197 to 199 |
| Clc1ccc2[nH]c(-c3ccccc3)cc2c1 | 195 to 196 |
| C=CCNc1nnc(-c2ccc(F)c(F)c2Nc2ccc(CC)cc2F)o1 | 120 to 123 |
| O=C(CCl)Oc1ccccc1CCC1SCCN1C(=O)CCl (stereo not drawn) | 88 to 89 |
| Cc1cccc2oc(=O)c(=O)[nH]c12 | 247 to 249 |
| CCNC(=O)c1cc([N+](=O)[O-])ccc1Oc1cncc(Cl)c1 | 165 to 167 |
| CCOC(=O)CCCOc1ccccc1O | 37.2 to 38.4 |
| COc1cccc2c1S(=O)(=O)c1ccccc1C2(CCOS(C)(=O)=O)CCOS(C)(=O)=O | 200 to 202 |
| Cc1ccc(-c2ccc(C(=O)Nc3ccc4cc(CN5CCCC5)cnc4c3C)cc2F)cc1 | 193 to 194 |
| COc1cc2cc(F)cnc2cc1F | 98 |
| CC(C)(OC(=O)C1C2CCC(C2)C1C(F)(F)F)C(F)(F)F (stereo not drawn) | 87 to 90 |
| CC1(C)Oc2ccc(C#N)cc2C(OC(=O)C2CCCN2S(=O)(=O)c2ccc(Cl)cc2)C1Br (stereo not drawn) | 178 to 180 |
| O=C(CCCCCCS(=O)(=O)c1ccc2ccccc2c1)c1ncco1 | 75 to 76 |
| CCN1CCN(C(=O)c2ccc(-c3[nH]nc4c3C(=O)c3c(NC(=O)NN5CCOCC5)cccc3-4)s2)CC1 | 186 to 188 |
| CC(C)(C)C(O)c1ccc(C(=O)O)cc1 (stereo not drawn) | 162 to 163 |
| CCCOc1nc(N[C@@H](C)Cc2ccccc2)c2cnn(-c3ccccc3)c2n1 | 134 to 136 |
| COC(=O)c1cnn(-c2c(Cl)cc(Cl)cc2Cl)c1N | 179 to 180 |
| COc1cc(C=CC(=O)OC2C=C(C)C(=O)CC(C)(C)C2O)ccc1O (stereo not drawn) | 142 |
| COc1ccc(N2CCN(c3c(C)c(C)c4c(c3C)C(c3ccc(C)cc3)C(C)(C)O4)CC2)cc1 (stereo not drawn) | 189 to 191 |
| CCCSc1sc(C(=O)OCC)c2c1-c1[nH]ncc1CC2 | 161 to 162 |

| Structure (SMILES) | melting point [°C] |
| --- | --- |
| CCC(CC)Nc1cc(C)nc(Cl)c1N | 165 to 166 |
| COc1ccc2nccc(CCNC(C)=O)c2c1 | 113 to 115 |
| c1ccc2c(c1)N=C(N1CCNCC1)c1sccc1N2 | 203 to 206 |
| O=C(O)CCCc1oc(Cl)nc1-c1ccc(Cl)cc1 | 150 to 151 |
| CCOCC(N=O)C(C)(C)Cl (stereo not drawn) | 84 to 85 |
| CCNC(=O)c1cccc2[nH][nH]c(=O)c12 | 209 to 210 |
| CC(=O)OC(C)OC(=O)[C@H](Cc1ccc(-c2c(C)n(C)c(=O)n(C)c2=O)cc1)NC(=O)c1c(C)cccc1Cl (stereo partly drawn) | 84 to 88 |
| N#CCN1CCC(OC(c2ccccc2)c2ccccc2)CC1 | 78 to 80 |
| COc1cc2nc(SCc3nccc(N4CCOCC4)c3Cl)[nH]c2cc1OC | 109 to 112 |
| Cc1cc(C(=O)CCl)c(N)cc1Cl | 129 to 130 |
| C=CC1(O)CCC2(C)C(CCC3C2CCC2(C)C(OC)CCC32)C1 (stereo not drawn) | 104 to 111 |
| CCOC(=O)c1cc2c3ccccc3n(CCCc3ccccc3)c2c(C)n1 | 101 to 102 |
| CC(O)c1nnc(-c2ccc3occ(-c4cccc(OC(F)(F)F)c4)c3c2)o1 (stereo not drawn) | 131 to 132 |
| CC(=O)NC(=O)NCC1CC2c3cccc4[nH]c(Br)c(c34)CC2N(C)C1 (stereo not drawn) | 210 to 212 |
| CCCCCCCCCCCCCCCCC/C=C1\SC(=O)NC1=O | 97 to 98.5 |
| COc1ccc(F)c([C@@H]2C[C@H]2CNC(=O)C(C)C)c1 (relative stereo) | 56 to 57 |
| CC1SC(=O)NN=C1c1ccc(N2CCC(N)CC2)c([N+](=O)[O-])c1 (stereo not drawn) | 154 to 157 |
| Brc1cnc(Br)c2ccccc12 | 95 to 96 |
| CC(C)(O)c1cccc(-c2ccc3nc(-c4ccc5cc[nH]c5c4)cn3c2)c1 | 203 to 204 |
| Cc1c(-c2ccc(O)cc2)n(Cc2ccc(OCCN3CCC(C)CC3)cc2)c2ccc(O)cc12 | 154 to 162 |
| CCCCCCCCCCCCOC(=O)c1cc(C(C)(C)C)c(OC(=O)c2cc(C(C)(C)C)c(O)c(C(C)(C)C)c2)c(C(C)(C)C)c1 | 53 to 56 |
| CCc1cc(CCc2nc3ccccc3o2)c(=O)[nH]c1C | 155 to 156 |
| O=S(=O)(NCCn1ccnc1)c1ccc(Br)cc1 | 165 to 167 |
| COC(Nc1ccccc1)(OC)c1ccnc(C(=O)c2ccccc2)c1 | 123 to 124 |
| COc1cc(CCNCc2ccccc2)c(CC(=O)O)cc1OC | 213 to 214 |
| CSc1cc(C)nc(SC)c1NC(=O)CN1CCN(CCO)CC1 | 119 to 120 |

| Structure (SMILES) | melting point [°C] |
| --- | --- |
| CC(C)(C)OC(=O)NCC(=O)SCC(Cc1ccccc1)C(=O)Nc1cccc(C(=O)O)c1 (stereo not drawn) | 76 to 80 |
| CCCCc1nc(Cl)c(CO)n1Cc1ccc2oc(-c3ccccc3C#N)c(OC)c2c1 | 164 to 168 |
| CCCCCCn1c(=O)n(C)c(=O)c2cnn(C)c21 | 106 to 107 |
| CN1C(=N)N(c2ccccc2)CC1=O | 169 to 170 |
| C[C@H](NC(=O)Cc1ccc(F)cc1)C(=O)N[C@@H]1C(=O)Nc2ccccc2O[C@@H]1c1ccccc1 | 130 to 140 |
| CCCN(CCC)C(=O)C(CCC(=O)NC)NC(=O)C=Cc1ccco1 (stereo not drawn) | 112 to 113 |
| CC(C)(C)CC(C)(C)c1ccc(N)c([N+](=O)[O-])c1 | 104 to 107 |
| CN(C)c1ccc(-n2c(N)nc3ccccc32)cc1-c1ccco1 | 208 to 210 |
| COc1cc2c(cc1OC)CCCC(C(=O)N1CCN(Cc3cc(OC)c(OC)c(OC)c3)CC1CN(C)C)=C2 (stereo not drawn) | 167 to 169 |
| O=[N+]([O-])c1cnccc1Nn1ccc2ccccc21 | 170 to 172 |
| CCOC(=O)c1ccc2c(c1)C(=O)CC(c1ccccc1)=N2 | > 300 |
| Cn1c(COc2ccc(CC3SC(=O)NC3=O)cc2)nc2ccc(Oc3ccc(NC(=O)Nc4cccc5ccccc45)cc3)cc21 (stereo not drawn) | 211 to 214 |
| COc1ccc(/C=C(\C#N)c2ccc(Br)cc2)cc1OC1CCCC1 | 116 to 119 |
| CSc1nc(Cl)c2sccc2n1 | 115 to 118 |
| COc1ccc(-c2nc(C(N)=O)oc2-c2ccc(OC)cc2)cc1 | 133 to 135 |
| CCC(=O)c1cc(C(=O)O)c(=O)[nH]c1CC | 180 to 182 |
| Cc1ccc(N)cc1C(=O)NS(C)(=O)=O | 174 to 176 |
| Cc1cc(-c2ccc(S(C)(=O)=O)cc2)n(-c2ccc(F)cc2)c1Br | 158 to 159 |
| O=C1CC[C@@H]2c3ccc(Cl)cc3CCC2N1 (stereo partly drawn) | 242 |
| CC(c1ccccc1)n1c(N)c(C#N)c2c1CCCC2 (stereo not drawn) | 129 |
| CCC(CC)c1ccc(Cl)c2nc(Cl)n(C)c12 | 94 to 95 |
| O=C(N[C@H]1CCN(CCc2ccc(F)cc2)C1)C(C1CCCCC1)C1CCCCC1 | 122 to 124 |
| Cn1cc(-c2cc(-c3ccncc3)ccn2)n(-c2ccc(C(C)(C)C#N)cc2)c1=O | 226 |
| Cc1cc(C)nc(NCSC(=S)N2CCOCC2)n1 | 119 to 121 |
| CCCc1cn(-c2cc(=O)n(-c3ccccc3)nc2C#N)nn1 | 192 to 195 |
